Measured values reported in patent publication US10640512B2, “Imidazopyrazinamine phenyl derivative and use thereof” (HANGZHOU SANYINTAI PHARMACEUTICAL TECHNOLOGY CO., LTD., priority 2016, dated 2020).
Read-outs that look alike come from different tables or passages of the source.

What was measured:
BTK = BTK (Homo sapiens, UniProt Q06187); experiment: Caliper Mobility Shift Assay, kinase inhibition; assay type: biochemical; conditions: for IC50: BTK enzyme activity; for inhibiting effects on BTK kinase (in words): summary of Table 1
BTK, sequence (Q06187 whole entry): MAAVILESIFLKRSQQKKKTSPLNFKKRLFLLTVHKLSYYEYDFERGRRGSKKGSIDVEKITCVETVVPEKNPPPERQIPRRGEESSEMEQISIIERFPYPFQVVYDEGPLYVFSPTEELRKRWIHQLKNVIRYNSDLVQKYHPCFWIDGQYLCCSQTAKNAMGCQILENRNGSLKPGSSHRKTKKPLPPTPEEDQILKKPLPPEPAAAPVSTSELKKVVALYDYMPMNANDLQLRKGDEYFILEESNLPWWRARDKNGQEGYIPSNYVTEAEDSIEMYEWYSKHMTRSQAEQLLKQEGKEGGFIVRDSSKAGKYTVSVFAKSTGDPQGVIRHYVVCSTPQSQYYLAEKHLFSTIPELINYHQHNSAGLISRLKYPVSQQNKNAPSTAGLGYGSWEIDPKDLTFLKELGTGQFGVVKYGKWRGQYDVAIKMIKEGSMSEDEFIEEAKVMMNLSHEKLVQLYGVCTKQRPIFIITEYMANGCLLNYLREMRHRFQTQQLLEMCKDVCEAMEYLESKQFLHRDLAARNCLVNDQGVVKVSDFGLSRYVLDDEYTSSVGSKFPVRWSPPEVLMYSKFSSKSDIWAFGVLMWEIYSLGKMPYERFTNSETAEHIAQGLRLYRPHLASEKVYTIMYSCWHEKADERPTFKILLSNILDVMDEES
Excerpt: (§1) The test method used was the Caliper Mobility Shift Assay, the kinases to be tested are BTK, ITK, TEC, EGFR, HER2, HER4, JAK3, HCK, LYN, SRC and SYK. The standard reference compound used was staurosporine.

[1] = tested on: ITK, TEC, EGFR, HER2, HER4, JAK3, HCK, LYN, SRC and SYK; experiment: Kinase selectivity panel, Caliper Mobility Shift Assay; assay type: biochemical; conditions: summary of Table 2
Method: The semi-inhibitory concentration IC50 of the compound (the concentration of the compound required to inhibit the enzyme activity to 50%) is determined by mixing a fixed enzyme with a specific substrate and different concentrations of the test compounds. The test method used was the Caliper Mobility Shift Assay, the kinases to be tested are BTK, ITK, TEC, EGFR, HER2, HER4, JAK3, HCK, LYN, SRC and SYK. The standard reference compound used was staurosporine.
The results of experiments on the inhibitions of ITK, TEC, EGFR, HER2, HER4, JAK3, HCK, LYN, SRC and SYK enzyme activities by the target compound Id were summarized in Table 2. […] This selective inhibiting effect has important values for the treatment of diseases such as rheumatoid arthritis, B cell lymphoma, leukemia, multiple myeloma, allergies, asthma, multiple sclerosis, type I diabetes and systemic lupus erythematosus. The tests of other compounds of the present invention also have similar results.

[2] = Pharmacokinetic properties in CD-1 mouse; assay type: in vivo; conditions: both sexes, plasma; for AUC(0-t): read-out: AUClast (area under the curve); for half-life: read-out: Terminal t1/2 (half life) (converted)
Method: Experiment animals: CD-1 mouse, males and females; body weight: 20-25 g;
Route of administration: oral/intravenous. […]
Sample collection: blood samples were collected at the following time points: 5 minutes, 15 minutes, 30 minutes, 1 hours, 2 hours, 4 hours, 8 hours and 24 hours after administration.
Sample analysis: The collected samples were tested using the LC-MS/MS method. The model of the instrument used was API4000.
Pharmacokinetic data analysis: the obtained plasma concentration data were fitted and calculated according to the non-compartmental model method using WinNolin.
In Table 3, CL: clearance. VSS: apparent volume of distribution at steady state. Terminal t1/2: half life. AUClast: area under the curve. MRTINF: average residence time. Tmax: peak time. Cmax: peak concentration. F: bioavailability, refers to the fraction of oral dosage actually reaching the blood circulation.

[3] = In vitro liver microsomal metabolism (human); assay type: in vitro ADME; conditions: human liver microsomes; for half-life: NADPH, 37° C., read-out: T1/2 in liver microsomes; for CLint scaled: calculated from elimination half life, read-out: intrinsic clearance (CLint)
Method: (§2) In addition, in vitro liver microsomal metabolism of the compounds of the present invention was also tested. The test compound was co-incubated with NADPH and mouse or human liver microsomes in a 37° C. water bath pot, a reaction was initiated by adding the test compound. […] was taken at different time points (0, 10, 20, 40 and 60 minutes) and transferred to acetonitrile containing an internal standard. After proteins were precipitated, the supernatant was obtained by centrifugation. The test compound in the supernatant was analyzed by the LC-MS/MS method. The intrinsic clearance in vitro was calculated according to the elimination half life of the test compound in the incubation system. Midazolam was subjected to parallel incubation as a positive control. […] Tests of the other compounds of the present invention also had similar results.

HER4 = HER4 (Homo sapiens, UniProt Q15303); experiment: Caliper Mobility Shift Assay, kinase inhibition; assay type: biochemical
HER4, sequence (Q15303 26-1308): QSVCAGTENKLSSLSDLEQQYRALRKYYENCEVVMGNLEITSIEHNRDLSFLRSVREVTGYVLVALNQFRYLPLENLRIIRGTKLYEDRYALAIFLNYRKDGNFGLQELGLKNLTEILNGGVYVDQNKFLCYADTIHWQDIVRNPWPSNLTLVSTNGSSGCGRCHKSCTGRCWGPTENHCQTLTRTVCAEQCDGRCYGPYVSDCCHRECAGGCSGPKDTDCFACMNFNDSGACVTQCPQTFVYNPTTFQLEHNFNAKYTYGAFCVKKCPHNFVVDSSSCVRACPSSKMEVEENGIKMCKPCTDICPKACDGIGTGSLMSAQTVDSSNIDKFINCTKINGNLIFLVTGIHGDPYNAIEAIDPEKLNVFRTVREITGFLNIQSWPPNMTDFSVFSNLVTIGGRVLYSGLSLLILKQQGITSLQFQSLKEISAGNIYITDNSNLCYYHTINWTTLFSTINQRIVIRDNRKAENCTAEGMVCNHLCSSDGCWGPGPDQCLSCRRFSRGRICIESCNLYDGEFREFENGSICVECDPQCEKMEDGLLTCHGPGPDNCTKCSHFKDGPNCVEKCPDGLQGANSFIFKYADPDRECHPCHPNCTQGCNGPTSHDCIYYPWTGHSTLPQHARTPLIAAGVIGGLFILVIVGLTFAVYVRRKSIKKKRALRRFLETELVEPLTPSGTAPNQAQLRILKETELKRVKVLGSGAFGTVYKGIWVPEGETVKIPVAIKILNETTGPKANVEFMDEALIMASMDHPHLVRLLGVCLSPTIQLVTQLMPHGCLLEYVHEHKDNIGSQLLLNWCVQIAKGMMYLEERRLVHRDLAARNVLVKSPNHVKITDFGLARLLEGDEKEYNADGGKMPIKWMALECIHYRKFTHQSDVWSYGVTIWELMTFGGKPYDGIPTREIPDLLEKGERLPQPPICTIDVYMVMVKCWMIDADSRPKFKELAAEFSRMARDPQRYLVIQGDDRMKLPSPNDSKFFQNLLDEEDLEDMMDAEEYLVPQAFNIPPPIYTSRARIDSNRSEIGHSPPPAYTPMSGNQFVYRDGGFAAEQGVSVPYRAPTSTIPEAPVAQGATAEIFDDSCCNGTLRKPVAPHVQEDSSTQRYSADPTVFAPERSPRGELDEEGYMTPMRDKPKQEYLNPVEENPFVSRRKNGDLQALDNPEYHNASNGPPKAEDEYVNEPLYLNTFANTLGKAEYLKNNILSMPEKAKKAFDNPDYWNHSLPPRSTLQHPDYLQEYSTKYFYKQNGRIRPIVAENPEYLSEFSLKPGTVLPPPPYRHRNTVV
Excerpt: as §1

SYK = SYK (Homo sapiens, UniProt P43405); experiment: Caliper Mobility Shift Assay, kinase inhibition; assay type: biochemical
Excerpt: as §1

ITK = target: T1, ITK (Homo sapiens, UniProt Q08881); experiment: Caliper Mobility Shift Assay, kinase inhibition; assay type: biochemical
T1 sequence (Q08881 1-620): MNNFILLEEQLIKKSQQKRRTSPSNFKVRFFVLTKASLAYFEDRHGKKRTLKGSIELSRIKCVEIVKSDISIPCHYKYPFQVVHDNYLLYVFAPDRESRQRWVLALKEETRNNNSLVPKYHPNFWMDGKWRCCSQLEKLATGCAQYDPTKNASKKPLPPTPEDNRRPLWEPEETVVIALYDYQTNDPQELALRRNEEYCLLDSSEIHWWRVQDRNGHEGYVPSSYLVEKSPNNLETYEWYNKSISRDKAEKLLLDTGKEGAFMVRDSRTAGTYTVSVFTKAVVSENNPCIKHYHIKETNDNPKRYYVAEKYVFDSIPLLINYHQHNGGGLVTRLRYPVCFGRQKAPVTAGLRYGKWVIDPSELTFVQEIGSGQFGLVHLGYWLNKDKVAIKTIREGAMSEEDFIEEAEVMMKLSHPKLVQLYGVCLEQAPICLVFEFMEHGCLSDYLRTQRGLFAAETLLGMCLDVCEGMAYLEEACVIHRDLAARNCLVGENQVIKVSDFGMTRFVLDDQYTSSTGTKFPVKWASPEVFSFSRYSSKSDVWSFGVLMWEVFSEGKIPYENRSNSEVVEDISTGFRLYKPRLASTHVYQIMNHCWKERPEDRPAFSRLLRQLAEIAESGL
Excerpt: as §1

JAK3 = target: T2, JAK3 (Homo sapiens, UniProt P52333); experiment: Caliper Mobility Shift Assay, kinase inhibition; assay type: biochemical
T2 sequence (P52333 1-1124): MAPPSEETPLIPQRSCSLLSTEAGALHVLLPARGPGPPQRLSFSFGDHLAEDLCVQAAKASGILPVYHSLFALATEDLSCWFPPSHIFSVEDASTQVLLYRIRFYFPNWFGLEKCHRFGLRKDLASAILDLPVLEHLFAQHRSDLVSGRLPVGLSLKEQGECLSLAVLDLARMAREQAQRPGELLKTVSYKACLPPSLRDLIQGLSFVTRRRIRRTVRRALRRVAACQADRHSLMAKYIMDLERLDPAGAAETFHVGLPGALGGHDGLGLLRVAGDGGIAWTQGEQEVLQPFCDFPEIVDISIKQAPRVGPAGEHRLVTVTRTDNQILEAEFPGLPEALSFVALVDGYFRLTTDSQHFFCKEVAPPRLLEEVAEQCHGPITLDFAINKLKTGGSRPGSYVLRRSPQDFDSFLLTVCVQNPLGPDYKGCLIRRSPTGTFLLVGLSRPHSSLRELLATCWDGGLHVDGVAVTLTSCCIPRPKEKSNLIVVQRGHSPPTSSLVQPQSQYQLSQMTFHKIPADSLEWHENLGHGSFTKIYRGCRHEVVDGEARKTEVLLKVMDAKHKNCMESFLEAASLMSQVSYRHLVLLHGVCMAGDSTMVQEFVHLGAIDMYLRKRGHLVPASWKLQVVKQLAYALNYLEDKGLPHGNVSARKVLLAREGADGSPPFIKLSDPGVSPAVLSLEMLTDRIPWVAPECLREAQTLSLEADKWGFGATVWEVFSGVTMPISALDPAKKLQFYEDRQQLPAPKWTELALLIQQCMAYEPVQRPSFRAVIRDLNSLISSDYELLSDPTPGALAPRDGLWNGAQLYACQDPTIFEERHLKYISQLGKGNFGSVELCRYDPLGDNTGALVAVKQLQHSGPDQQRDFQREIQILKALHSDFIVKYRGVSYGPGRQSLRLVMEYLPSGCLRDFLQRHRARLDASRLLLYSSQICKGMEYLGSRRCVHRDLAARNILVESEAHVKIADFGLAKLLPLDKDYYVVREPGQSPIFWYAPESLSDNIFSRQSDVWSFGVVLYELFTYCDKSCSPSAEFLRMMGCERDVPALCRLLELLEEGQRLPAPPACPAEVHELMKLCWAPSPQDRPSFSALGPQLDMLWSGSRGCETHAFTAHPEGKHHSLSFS
Excerpt: as §1

HER2 = HER2 (Homo sapiens, UniProt P04626); experiment: Caliper Mobility Shift Assay, kinase inhibition; assay type: biochemical
Excerpt: as §1

EGFR = EGFR (Homo sapiens, UniProt P00533); experiment: Caliper Mobility Shift Assay, kinase inhibition; assay type: biochemical
EGFR, sequence (P00533 25-1210): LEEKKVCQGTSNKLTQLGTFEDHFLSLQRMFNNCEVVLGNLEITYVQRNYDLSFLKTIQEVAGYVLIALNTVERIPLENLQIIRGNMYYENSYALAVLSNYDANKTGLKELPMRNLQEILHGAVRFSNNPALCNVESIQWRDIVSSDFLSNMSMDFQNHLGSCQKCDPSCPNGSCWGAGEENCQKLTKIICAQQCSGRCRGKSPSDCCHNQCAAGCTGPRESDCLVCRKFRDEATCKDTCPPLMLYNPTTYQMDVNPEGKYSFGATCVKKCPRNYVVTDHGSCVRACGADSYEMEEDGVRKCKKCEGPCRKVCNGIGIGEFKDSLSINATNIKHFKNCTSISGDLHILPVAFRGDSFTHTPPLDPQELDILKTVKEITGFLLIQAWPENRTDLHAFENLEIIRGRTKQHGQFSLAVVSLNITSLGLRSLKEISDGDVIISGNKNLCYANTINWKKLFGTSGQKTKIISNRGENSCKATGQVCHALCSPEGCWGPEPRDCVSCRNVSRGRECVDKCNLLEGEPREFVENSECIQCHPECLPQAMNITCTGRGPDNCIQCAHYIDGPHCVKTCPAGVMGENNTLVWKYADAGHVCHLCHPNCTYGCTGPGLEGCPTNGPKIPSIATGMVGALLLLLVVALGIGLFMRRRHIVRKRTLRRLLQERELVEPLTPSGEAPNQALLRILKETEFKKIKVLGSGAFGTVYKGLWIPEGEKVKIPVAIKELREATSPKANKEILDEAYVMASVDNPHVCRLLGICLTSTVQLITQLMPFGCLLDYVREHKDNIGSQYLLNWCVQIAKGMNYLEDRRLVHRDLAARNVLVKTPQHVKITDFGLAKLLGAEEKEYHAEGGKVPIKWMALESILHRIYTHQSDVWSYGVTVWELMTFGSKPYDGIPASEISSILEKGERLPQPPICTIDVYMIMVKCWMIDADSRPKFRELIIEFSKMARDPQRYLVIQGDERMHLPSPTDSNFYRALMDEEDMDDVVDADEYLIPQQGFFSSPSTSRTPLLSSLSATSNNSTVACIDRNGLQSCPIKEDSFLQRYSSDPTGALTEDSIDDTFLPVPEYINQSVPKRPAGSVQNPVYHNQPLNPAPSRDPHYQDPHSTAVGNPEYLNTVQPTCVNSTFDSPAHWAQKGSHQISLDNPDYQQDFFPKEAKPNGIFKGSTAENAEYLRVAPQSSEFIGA
Excerpt: as §1

LYN = LYN (Homo sapiens, UniProt P07948); experiment: Caliper Mobility Shift Assay, kinase inhibition; assay type: biochemical
LYN, sequence (P07948 whole entry): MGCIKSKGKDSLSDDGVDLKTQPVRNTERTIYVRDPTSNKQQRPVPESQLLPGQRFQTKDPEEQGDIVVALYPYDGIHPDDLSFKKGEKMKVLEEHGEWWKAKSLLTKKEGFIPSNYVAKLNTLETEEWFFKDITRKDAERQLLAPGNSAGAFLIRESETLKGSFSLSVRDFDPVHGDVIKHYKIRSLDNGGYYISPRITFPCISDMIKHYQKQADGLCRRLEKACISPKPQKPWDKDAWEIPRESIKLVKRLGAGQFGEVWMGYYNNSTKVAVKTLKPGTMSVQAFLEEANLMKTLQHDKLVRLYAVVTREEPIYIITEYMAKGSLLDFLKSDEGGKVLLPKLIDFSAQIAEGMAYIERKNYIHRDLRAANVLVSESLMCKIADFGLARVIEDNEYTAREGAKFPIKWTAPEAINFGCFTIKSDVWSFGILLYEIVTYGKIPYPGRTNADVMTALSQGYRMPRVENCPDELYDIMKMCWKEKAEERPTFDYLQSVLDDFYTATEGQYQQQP
Excerpt: as §1

HCK = HCK (Homo sapiens, UniProt P08631); experiment: Caliper Mobility Shift Assay, kinase inhibition; assay type: biochemical
HCK, sequence (P08631 whole entry): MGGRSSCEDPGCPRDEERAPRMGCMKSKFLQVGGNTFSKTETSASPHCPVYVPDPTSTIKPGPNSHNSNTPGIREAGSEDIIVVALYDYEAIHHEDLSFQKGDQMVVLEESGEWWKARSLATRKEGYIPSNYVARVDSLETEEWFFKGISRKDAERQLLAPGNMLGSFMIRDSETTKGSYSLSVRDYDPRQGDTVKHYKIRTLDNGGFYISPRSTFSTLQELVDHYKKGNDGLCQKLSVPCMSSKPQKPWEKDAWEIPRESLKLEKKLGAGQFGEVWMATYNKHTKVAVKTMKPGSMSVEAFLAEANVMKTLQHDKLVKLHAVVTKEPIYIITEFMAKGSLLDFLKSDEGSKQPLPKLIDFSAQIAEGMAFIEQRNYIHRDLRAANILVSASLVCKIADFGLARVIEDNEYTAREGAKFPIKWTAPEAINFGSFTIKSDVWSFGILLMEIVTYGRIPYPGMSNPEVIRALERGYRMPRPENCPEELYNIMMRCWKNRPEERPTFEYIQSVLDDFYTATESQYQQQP
Excerpt: as §1

SRC = SRC (Homo sapiens, UniProt P12931); experiment: Caliper Mobility Shift Assay, kinase inhibition; assay type: biochemical
SRC, sequence (P12931 whole entry): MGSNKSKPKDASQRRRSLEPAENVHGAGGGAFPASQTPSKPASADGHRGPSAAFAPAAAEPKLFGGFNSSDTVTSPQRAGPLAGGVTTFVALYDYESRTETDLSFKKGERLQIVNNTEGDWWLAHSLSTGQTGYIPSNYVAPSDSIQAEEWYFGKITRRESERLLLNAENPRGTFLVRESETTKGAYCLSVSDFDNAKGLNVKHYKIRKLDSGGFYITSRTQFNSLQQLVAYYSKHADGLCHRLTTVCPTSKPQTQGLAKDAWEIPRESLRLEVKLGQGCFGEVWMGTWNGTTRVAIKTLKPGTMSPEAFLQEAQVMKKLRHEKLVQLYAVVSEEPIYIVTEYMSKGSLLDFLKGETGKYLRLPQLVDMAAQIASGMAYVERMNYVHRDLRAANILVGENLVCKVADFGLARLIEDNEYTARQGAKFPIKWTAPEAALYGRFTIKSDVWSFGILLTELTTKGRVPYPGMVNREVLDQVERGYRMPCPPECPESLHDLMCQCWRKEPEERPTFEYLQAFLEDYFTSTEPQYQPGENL
Excerpt: as §1

TEC = target: T3, TEC (Homo sapiens, UniProt P42680); experiment: Caliper Mobility Shift Assay, kinase inhibition; assay type: biochemical
T3 sequence (P42680 1-631): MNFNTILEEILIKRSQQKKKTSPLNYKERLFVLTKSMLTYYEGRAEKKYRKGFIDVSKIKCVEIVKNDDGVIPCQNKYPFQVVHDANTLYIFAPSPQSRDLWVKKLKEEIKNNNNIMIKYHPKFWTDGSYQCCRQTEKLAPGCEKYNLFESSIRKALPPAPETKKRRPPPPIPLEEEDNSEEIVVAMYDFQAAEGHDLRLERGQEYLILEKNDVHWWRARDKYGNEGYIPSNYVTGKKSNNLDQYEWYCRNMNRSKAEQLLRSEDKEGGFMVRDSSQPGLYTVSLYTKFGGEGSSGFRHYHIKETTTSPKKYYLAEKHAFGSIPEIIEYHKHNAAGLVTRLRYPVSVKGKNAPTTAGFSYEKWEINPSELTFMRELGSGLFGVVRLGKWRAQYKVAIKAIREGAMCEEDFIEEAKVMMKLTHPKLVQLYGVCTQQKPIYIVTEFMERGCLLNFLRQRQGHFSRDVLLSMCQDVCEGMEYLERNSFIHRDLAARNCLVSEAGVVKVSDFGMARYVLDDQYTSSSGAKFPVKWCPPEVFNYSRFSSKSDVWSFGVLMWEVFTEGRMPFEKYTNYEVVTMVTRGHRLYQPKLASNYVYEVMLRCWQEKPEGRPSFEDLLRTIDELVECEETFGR
Excerpt: as §1

[4] = In vitro liver microsomal metabolism (mouse); assay type: in vitro ADME; conditions: for half-life / CLint scaled: mouse liver microsomes; for half-life: NADPH, 37° C., read-out: T1/2 in liver microsomes; for CLint scaled: calculated from elimination half life, read-out: intrinsic clearance (CLint)
Method: as §2

[5] = disclosed in a conference paper (2nd International Conference on New Concepts in B-cell Malignancies, 2016); cited from earlier work
[6] = 3 mg/kg, intravenous injection, single administration
[7] = 15 mg/kg, oral, single administration

| Structure (SMILES) | IC50 (BTK) [nM] | inhibiting effects on BTK kinase (in words) (BTK) | half-life [3] [min] | CLint scaled [3] [mL/min/kg] | IC50 (SYK) [nM] | IC50 (LYN) [nM] | IC50 (HCK) [nM] | IC50 (SRC) [nM] | half-life [4] [min] | CLint scaled [4] [mL/min/kg] | other results |
| --- | --- | --- | --- | --- | --- | --- | --- | --- | --- | --- | --- |
| CC#CC(=O)N1CCC[C@H]1c1nc(-c2ccc(Oc3ccccc3)cc2)c2c(N)nccn12 [Compound of formula Id] | 4.8 | very strong inhibiting effects | 3.13 | 555 | > 1000 | > 1000 | > 1000 | > 1000 | 8.26 | 661 | selective inhibiting activity (in words) [1]: good; AUC(0-t) [2, 6]: 661 ng·h/mL; clearance ([2]; 3 mg/kg, intravenous injection, single administration, read-out: CL (clearance) (converted)): 77 mL/min/kg; MRT inf ([2]; 3 mg/kg, intravenous injection, single administration, read-out: MRTINF (average residence time)): 17.8 min; half-life [2, 6]: 17.2 min; Vd ([2]; 3 mg/kg, intravenous injection, single administration, read-out: Vss (apparent volume of distribution at steady state)): 1.3 L/kg; bioavailability ([2]; 15 mg/kg oral vs 3 mg/kg intravenous, read-out: F (bioavailability)): 56.4%; AUC(0-t) [2, 7]: 1880 ng·h/mL; Cmax ([2]; 15 mg/kg, oral, single administration, read-out: Cmax (peak concentration)): 848 ng/mL; half-life [2, 7]: 98.4 min; Tmax ([2]; 15 mg/kg, oral, single administration, read-out: Tmax (peak time)): 15 min; IC50 (HER4): > 1000 nM; IC50 (ITK): > 1000 nM; IC50 (JAK3): > 1000 nM; IC50 (HER2): > 1000 nM; IC50 (EGFR): > 1000 nM; IC50 (TEC): 40 nM; metabolism rate relative to acalabrutinib (in words) ([4]; mouse or human liver microsomes): metabolized faster than acalabrutinib |
| CC#CC(=O)N1CCC[C@H]1c1nc(-c2ccc(C(=O)Nc3ccccn3)c(C)c2)c2c(N)nccn12 [Compound of formula Ib] | 50 | very strong inhibiting effects |  |  |  |  |  |  |  |  |  |

Second part, led by results:

| IC50 (BTK) [nM] | inhibiting effects on BTK kinase (in words) (BTK) | half-life [3] [min] | CLint scaled [3] [mL/min/kg] | IC50 (SYK) [nM] | IC50 (LYN) [nM] | IC50 (HCK) [nM] | IC50 (SRC) [nM] | half-life [4] [min] | CLint scaled [4] [mL/min/kg] | Structure (SMILES) | other results |
| --- | --- | --- | --- | --- | --- | --- | --- | --- | --- | --- | --- |
| 577 | strong inhibiting effects |  |  |  |  |  |  |  |  | CC#CC(=O)N1CCC[C@H]1c1nc(-c2ccc(Oc3ccccn3)cc2)c2c(N)nccn12 [Compound of formula Ic] |  |
|  |  | 11.9 | 146 | > 1000 | > 1000 | > 1000 | > 1000 | 23.3 | 234 | CC#CC(=O)N1CCC[C@H]1c1nc(-c2ccc(C(=O)Nc3ccccn3)cc2)c2c(N)nccn12 [Acalabrutinib, acalabrutinib, reference compound] | half life [5]: 67.8 min |
| 415 | strong inhibiting effects |  |  |  |  |  |  |  |  | CC#CC(=O)N1CCC[C@H]1c1nc(-c2ccc(NC(=O)c3ccccn3)cc2)c2c(N)nccn12 [Compound of formula Ia] |  |
